These are literature values, as cited in patent US20070259951A1, “Compounds, Compositions and Methods” (SMITHKLINE BEECHAM CORPORATION, priority 2003, published 2007).

This data set concerns A549 cells. The conditions noted are these: data provided by National Cancer Institute.
For `O=c1[nH]cc(F)c(=O)[nH]1` [5-fluorouracil], the GI50 was 1 µM.

Take `COc1cccc2c1C(=O)c1c(O)c3c(c(O)c1C2=O)C[C@@](O)(C(=O)CO)C[C@@H]3O[C@H]1C[C@H](N)[C@H](O)[C@H](C)O1` [doxorubicin]: the GI50 was 0.063 µM.

Turning to `NC(=O)NO` [hydroxyurea], the GI50 was 500 µM.

Take `CC(=O)O[C@H]1C(=O)[C@@]2(C)[C@H]([C@H](OC(=O)c3ccccc3)[C@]3(O)C[C@H](OC(=O)[C@H](O)[C@@H](NC(=O)c4ccccc4)c4ccccc4)C(C)=C1C3(C)C)[C@]1(OC(C)=O)CO[C@@H]1C[C@@H]2O` [paclitaxel]: the GI50 is 0.004 µM.
